Where two headings read alike, the source gives them in different places.
Experiments:
[1] = system: Hyp1-NLuc Plasmodium falciparum-infected erythrocytes (new permeability pathway, NPP); test: microbe, parasite or virus in culture; conditions: Erythrocyte, 0.33 h, read-out: Mean RLU at 28 min (As % of DMSO control)
[2] = system: Hyp1-NLuc Plasmodium falciparum-infected erythrocytes (new permeability pathway, NPP); test: microbe, parasite or virus in culture; conditions: Erythrocyte, 0.33 h, read-out: % of control remaining

SMILES	activity at 2 µM [1]	activity at 2 µM [2]
COc1cc2c(cc1OC)C1=NNC(=O)C1=NC(C)(C)C2 [MMV084940]	101%	101%
COc1ccccc1N=C1C(=O)c2ccccc2C(O)=C1N1CCCCC1 [MMV085203]	107%	104%
CCOc1ccc(-n2cc(-c3ccccc3)c3c(SCc4cc(C)ccc4C)ncnc32)cc1 [MMV085471]	104%	118%
CCCCCC(=O)N1c2ccccc2N=C2CC(c3ccc(OC)c(OC)c3)CC(O)=C2C1c1ccc(C(F)(F)F)cc1 (stereo not drawn) [MMV085583]	103%	102%
Cc1ccc(C(=O)c2oc3ccc4c(C)cc(=O)oc4c3c2C)cc1 [MMV086103]	94.6%	95.7%
COc1cc(CNCCc2ccc(Cl)cc2)cc(OC)c1O [MMV128432]	97.7%	97.8%
CC(C)(C)c1ccc(C(=O)Nc2nc3ccccc3s2)cc1 [MMV142383]	110%	121%
COc1ccc2nc(C)cc(Nc3ccccc3O)c2c1 [MMV274073]	110%	110%
COc1ccc(-c2nc(N3CCN(C(=O)C4CCCCC4)CC3)c3c4c(sc3n2)CCCC4)cc1 [MMV396594]	88.9%	87.1%
CCOc1ccccc1CN1CCc2nc3cc(C(C)(C)C)nn3c(O)c2C1 [MMV396595]	88.3%	86.5%
CCOc1c(Cl)cc(CNCC(O)c2ccccc2)cc1OC (stereo not drawn) [MMV396632]	99.9%	101%
CCOc1cc(CNC(C)C(O)c2ccccc2)cc(Cl)c1OCC (stereo not drawn) [MMV396633]	113%	114%
O=C(NC1CCN(Cc2ccccc2)CC1)c1cc2nc(-c3ccc(Cl)s3)cc(C(F)(F)F)n2n1 [MMV396635]	101%	101%
Cc1sc(NC(=O)c2ccccc2)c(C(c2cccs2)N2CCN(c3ccccc3)CC2)c1C (stereo not drawn) [MMV396652]	101%	104%
Cc1sc(NC(=O)c2ccco2)c(C(c2cccnc2)N2CCC(Cc3ccccc3)CC2)c1C (stereo not drawn) [MMV396663]	97%	92.5%
CCOC(=O)c1c(C)n(-c2ccccc2)c2ccc(OC(=O)c3cc(OC)c(OC)c(OC)c3)cc12 [MMV396664]	94.9%	97.3%
COc1cc(C(=O)Nc2nc3c(cc4c5c(cccc53)CC4)s2)cc(OC)c1OC [MMV396665]	103%	102%
Cc1cc(N2CCCC2)nc(Nc2ccc(NC(=O)CCc3ccccc3)cc2)n1 [MMV396669]	90.3%	76.3%
O=C(NCC(c1ccsc1)N1CCCCCC1)c1ccc(C(F)(F)F)cc1 (stereo not drawn) [MMV396672]	101%	98.1%
O=C(CSc1nccn2nc(-c3ccccc3)cc12)Nc1cc(C(F)(F)F)ccc1Cl [MMV396678]	107%	107%
COc1ccc(-c2cc3c(SCC(=O)Nc4cc(C(F)(F)F)ccc4Cl)nccn3n2)cc1 [MMV396679]	106%	105%
Cc1ccc(-c2cc3c(SCC(=O)Nc4cc(C(F)(F)F)ccc4Cl)nccn3n2)cc1 [MMV396680]	106%	101%
Cc1cc(NC(=O)c2cccc(C(F)(F)F)c2)n(-c2nc(-c3ccc4c(c3)OCO4)cs2)n1 [MMV396681]	106%	102%
C[n+]1c2ccccc2nc2ccc(NCCO)cc21 [MMV396693]	101%	100%
CCN(CC)CCNc1ncnc2c1[nH]c1ccc(Cl)cc12 [MMV396703]	110%	99.7%
CN1CCN(c2ncnc3c2[nH]c2ccc(Cl)cc23)CC1 [MMV396704]	95.9%	95.6%

SMILES	activity at 2 µM [1]	activity at 2 µM [2]
COc1cccc(Cn2c(Oc3ccccc3)nc3c2c(=O)n(C)c(=O)n3C)c1 [MMV396705]	102%	101%
CC1(c2ccccc2)Nc2ccccc2-c2nc3ccccc3n21 (stereo not drawn) [MMV396715]	102%	100%
COc1ccc(CCN2C(=O)c3[nH]nc(-c4cc(Cl)c(C)cc4O)c3C2c2ccccc2F)cc1 (stereo not drawn) [MMV396717]	96.5%	80.3%
COc1cccc(C2(C)Nc3ccccc3-c3nc4ccccc4n32)c1 (stereo not drawn) [MMV396719]	105%	105%
N=c1n(CCN2CCCCC2)c2ccccc2n1CC(=O)c1ccc(Cl)c(Cl)c1 [MMV396723]	98.3%	91.7%
N#Cc1nc(Cc2cccc3ccccc23)oc1N1CCN(C(c2ccccc2)c2ccccc2)CC1 [MMV396726]	99.9%	99.5%
OC(CNCC1CCCO1)Cn1c2ccc(Cl)cc2c2cc(Cl)ccc21 (stereo not drawn) [MMV396736]	116%	112%
CC(C)CNC(=O)c1c(N)n(CCc2ccccc2F)c2nc3ccccc3nc12 [MMV396744]	108%	110%
COc1ccc2c(c1)C1(Nc3ccccc3-c3nc4ccccc4n31)C(=O)N2 (stereo not drawn) [MMV396749]	103%	104%
O=C(NNc1cc(N2CCCC2)nc(N2CCCC2)n1)c1ccccc1 [MMV396770]	101%	88.7%
CC(C)(C)CC(C)(C)NCC(O)COc1ccc(Cl)cc1Cl (stereo not drawn) [MMV396794]	111%	109%
COc1ccc(-c2c(C)nn3c(N)c(C#N)cnc23)cc1OC [MMV396797]	104%	89.6%
Cc1cccc(-n2ncc3c(=O)[nH]c(-n4nc(C)cc4NC(=O)c4cc5ccccc5o4)nc32)c1 [MMV403679]	109%	109%
CCOC(=O)c1cnc2c(CC)cccc2c1O [MMV498479]	103%	107%
Nc1ccn(C2O[C@H](CO)[C@@H](O)[C@H]2O)c(=O)n1 (stereo partly drawn) [MMV638723]	86.2%	88.6%
O=C1C2=C(Nc3ccccc3SC2c2ccccc2)c2ccccc21 (stereo not drawn) [MMV645672]	106%	106%
CCN(CC)CCCNc1ccnc2cc3ccccc3cc12 [MMV665783]	101%	106%
CC(C)(C)c1ccc(O)c(CNC2CCCCC2)c1 [MMV665785]	103%	104%
O=c1cc(NC2CCN(CCCc3ccccc3)CC2)c2cc(Cl)ccc2o1 [MMV665786]	96.5%	89.1%
CC(NCc1ccccc1)c1cc(Cl)ccc1O (stereo not drawn) [MMV665789]	107%	117%
FC(F)(F)c1cccc(Nc2nc3ccccc3nc2Nc2cccc(C(F)(F)F)c2)c1 [MMV665794]	103%	109%
CCOc1cc(Br)c(C(C)NC(=O)c2cccc(OC)c2)cc1OCC (stereo not drawn) [MMV665796]	106%	115%
CCCCOC(=O)c1ccc(Nc2cc(C)nc3ccc(OC)cc23)cc1 [MMV665797]	104%	107%
FC(F)(F)c1cccc(Nc2nc(-c3ccccc3)nc3ncccc23)c1 [MMV665798]	103%	117%
COc1ccc(C(=O)Nc2ccc(Cl)cc2C(=O)Nc2ccncc2)cc1 [MMV665799]	100%	111%

Reference: PMC5118696, “Identification of inhibitors that dually target the new permeability pathway and dihydroorotate dehydrogenase in the blood stage of Plasmodium falciparum” (Scientific Reports, 2016)
